Results taken from patent US9857359B2, “Methods for determining drug efficacy using cereblon-associated proteins” (CELGENE CORPORATION, priority 2012, dated 2018).

Key:
[1] = tested on: DLBCL cell lines; assay: Proliferation of DLBCL cell lines in vitro; assay type: cell-based
[2] = tested on: Aiolos; assay: Aiolos Western blotting in monkey PBMCs; assay type: cell-based, Mauritius Monkey; conditions: 2 nM and 200 nM, 18 hours after treatment
[3] = tested on: Aiolos/IKZF3; assay: Cyno Monkey dose regimen study, Aiolos Western blotting of PBMC; assay type: in vivo, Cynomolgus (M. fascicularis); conditions: for Aiolos 42 kD / Aiolos 58 kD: in several monkeys
Excerpt: As depicted in FIG. 4, the study in Cynomolgus monkeys was divided in two phases: Phase I (7 days of oral doing with test article, Compound B hydrochloride) followed by 28 day test article free period and finally Phase II (28 days of oral dosing with test article). The objective of the Phase I of this study was to determine the onset and duration of pharmacodynamic effect of Compound B. The objective of the Phase II of this study was to explore the relationship the pharmacodynamic effects and safety/tolerability of Compound B. In addition, the toxicokinetic characteristics of Compound B were determined. Doses of Compound B tested were 0.75 mg/kg QD, every other day, or 4 days on, 3 days off. The test and control articles were administered to the appropriate animals by gavage from Days 1 to 7 for Phase I and from Days 1 to 28 in Phase II following dose regimens as described above. Phase I and Phase II were separated by at least a 28 day dose free session. The dose volume for each animal was based on the most recent body weight measurement. A naso/orogastric tube was inserted through a nostril (nasogastric) or through the mouth (orogastric) and advanced into the lower esophagus to the stomach. The animals were temporarily restrained (e.g., manually) for dose administration, and were not sedated. Disposable sterile syringes and naso/orogastric tubes were used for each animal/dose. Each dose were followed by a tap water flush of approximately 5 mL. The dosing formulations were stirred continuously during dose administration. Peripheral blood mononuclear cell subsets analyzed by flow cytometry were: CD45^+/CD3^+/CD20^+/CD16^+, CD45^+/CD20^+, CD45^+/CD3^+, CD45^+/CD3^+/CD4^+, CD45^+/CD3^+/CD8^+, CD45^+/CD3^−/CD16^+, CD45^+/CD3^−/CD14^+. Anti-KLH antibody titers were assayed by ELISA (FIG. 5). The protein levels of Aiolos/IKZF3 were measured in the peripheral blood mononuclear cells as follows. Cynomolgus (M. fascicularis) blood yielded approximately 10 million (10×10^6) mononuclear cells (PBMC) per 2.5 ml whole blood (according to protocol by Non Human Primate Reagent Source, Boston). After the cyno PBMC isolation, each sample was divided into two portions: 7×10^6 cells for protein analysis and 3×10^6 cells for mRNA analysis. All steps were done on ice, all centrifugation in a 4° C. refrigerated centrifuge. RIPA lysis buffer (Pierce, cat#89900) was prepared by adding 10 μL proteinase inhibitors (Pierce, cat#78443) to 1 mL of RIPA buffer. The PBMC was washed once in ice-cold phosphate buffered saline (PBS). Lysis buffer (use 0.25 mL RIPA lysis buffer per 7×10^6 PBMC) was added. The tube was placed on ice for 30 minutes, vortexed every 10 min. The lysate was frozen and store at −80° C. until analysis. The lysate was placed into a QIAshredder tube (QIAGEN, cat#79656) and spun down 30 sec at top speed (13200 rpm) in an Eppendorf benchtop centrifuge (Model 5415 R). […] The supernatant was collected without disturbing cell debris pellet (RIPA reagent enables the extraction of membrane, nuclear and cytoplasmic proteins that will remain in the supernatant). The protein lysate was frozen on dry ice and stored at −80° C. until analysis. The protein concentration was measured using BCA assay. The protein yield was expected to be 0.5-5 μg/μL, or 125-1250 μg total. ≧10 μg protein was loaded per lane for western for IKZF3/Aiolos using antibodies against the human proteins.

[4] = tested on: Aiolos; assay: Aiolos protein expression in T cells with or without proteasome inhibitor; assay type: cell-based
Protocol: U266 cells were obtained from ATCC (American Type Culture Collection, Manassas, Va., USA). DF15 cells were obtained from John Shaughnessy (University of Arkansas, Little Rock, Ark., USA). CD19+ B cells were purchased from HemaCare BioResearch Products (Van Nuys, Calif.). Cells were grown in RPMI-1640 medium (Cellgro, Manassas, Va.) containing 10% (V/V) heat-inactivated fetal bovine serum (Gibco, Grand Island, N.Y., USA) supplemented with 2 mM glutamine. […] Primary T cells were isolated from human leukocytes (Blood Center of New Jersey, East Orange, N.J.) by centrifugation through FICOLL® centrifugation medium following the ROSETETTESEP™ protocol (Stem Cell Technologies, Vancouver, Canada). […] Dexamethasone (Sigma, St. Louis, Mo.), melphalan (Sigma, St. Louis, Mo.) and bortezomib (Selleck Chemicals, Houston, Tex.) treated was for 6 hours. The final DMSO concentration is 0.1%. Cells were pre-treated with 10 μM MG-132 (Calbiochem Biochemicals, Billerica, Mass.) for 30 minutes prior to drug addition. Cells were harvested, washed in PBS and cell lysates separated on SDS-PAGE gels (Bio-Rad, Hercules, Calif.). […] The blots were analyzed on ODESSEY® imager (LI-COR Biosciences, Lincoln, Nebr.).

[5] = tested on: Aiolos; assay: Overexpressed flag-Aiolos-myc in AU565 cells, western blot; assay type: cell-based
Protocol: In some experiments, cell lines were transfected with an Aiolos overexpression vector using Lipofectamine reagent in a batch method. Cells were seeded in a 12 well plate at 1×10^5 cells in a 3 mL volume per well. Where specified, cells were pretreated with MG132 at 10 uM for 1 hour, or DMSO was added as a control. Following the pretreatment, Compound A was added directly to the cell culture media at the specified concentration.
Cells were harvested and lysed in Pierce #89900 Ripa buffer containing 2× protease inhibitor cocktail from Pierce #78442. The lysate was applied to a QiaShredder to remove DNA. Total protein yield was measured using BioRad DC protein determination kit (Cat#500-0112). Lysates were stored at −80° C. until use. Samples were applied to BioRad Criterion PreCast gels, 10% (Bio-Rad#345-0010) and transferred to Bio-Rad Nitrocellulose/Filter Paper Sandwiches (#162-0233) for western blot analysis.

In the case of `Nc1cccc2c1CN(C1CCC(=O)NC1=O)C2=O` (centres unmarked) [lenalidomide], the “Effect on non-ABC-DLBCL cells” value [1] was “minimal effect on non-ABC-DLBCL cells” and the “Proliferation of ABC-DLBCL cells” value ([1]; in vitro) was “preferentially suppressed proliferation of ABC-DLBCL cells”.
`O=C1CC[C@H](N2Cc3c(OCc4ccc(CN5CCOCC5)cc4)cccc3C2=O)C(=O)N1` [Compound B, 3-(4-((4-(morpholinomethyl)benzyl)oxy)-1-oxoisoindolin-2-yl)piperidine-2,6-dione] was tested, and the Aiolos expression [2] was “inhibited the expression of Aiolos”, the Aiolos expression ([3]; Cyno monkeys, all dosing regimens) was “generally inhibits the expression of Aiolos” and the “Aiolos 42 kD” value ([3]; Group 2, QD dosing) was “increased Aiolos 42 kD”. For the same compound, the “Aiolos 58 kD” value ([3]; Group 2, QD dosing) was “reduced Aiolos 58 kD”, the “Aiolos 42 kD” value ([3]; Group 3, Q2D dosing) was “increased Aiolos 42 kD” and the “Aiolos 58 kD” value ([3]; Group 3, Q2D dosing) was “reduced Aiolos 58 kD”. The “Aiolos 42 kD” value ([3]; Group 4, 4 day/week dosing) was “increased Aiolos 42 kD” and the “Aiolos 58 kD” value ([3]; Group 4, 4 day/week dosing) was “reduced Aiolos 58 kD”.
`Cc1nc2cccc(N)c2c(=O)n1C1CCC(=O)NC1=O` (centres unmarked) [Compound A, 3-(5-amino-2-methyl-4-oxo-4H-quinazolin-3-yl)-piperidine-2,6-dione] was tested, and the Aiolos expression ([4]; absence of a proteasome inhibitor) was “inhibit the expression of Aiolos”, the Aiolos expression ([4]; proteasome inhibitor present) was “little inhibition was observed” and the “Inhibition of Aiolos with proteasome inhibitor MG-132” value ([5]; MG132 pretreatment) was “rescued by the addition of proteasome inhibitor MG-132”. The “Time at which reduction of overexpressed Aiolos begins to show” value ([5]; after the treatment) was “about 5 hours”.
